Source: publication PMC10959927, “Platinum iodido drugs show potential anti-tumor activity, affecting cancer cell metabolism and inducing ROS and senescence in gastrointestinal cancer cells” (Communications Biology, 2024)
“And” between values parts separate entries of the source, which are not always exact repeats. Equal values may be shown once.

What was measured:
NU-Foxn1nu nude mice [1] = experiment: Whole blood hematology of treated xenograft mice; format: in vivo, mouse; conditions: for Basophils / Eosinophils / Haemoglobin / Hematocrit / Lymphocytes / MCH / MCHC / MCV / MPV / Monocytes / Neutrophils / RDW-CV: individual mice
Description: (§1) PANC1 cells were then trypsinized and resuspended in RPMI culture medium with 40% Matrigel (no. 45354234, Corning® Matrigel® Basement Membrane Matrix, LDEV-free, Cultek, Spain) at a concentration of 1 × 10^5 cells per 50 μL, and then 50 μL of the resuspended cells were subcutaneously injected into the right and left flanks of female 8 week-old NU-Foxn1nu nude mice (Janvier Labs, France). Tumor growth and volumes were monitored every 2–3 days for up to 4 weeks with a caliper, and tumor volumes (mm^3) were computed using the formula: 0.5 × D12 × D2, where D1 and D2 are the width or the […] diameter and the length or the smallest diameter of a given tumor, respectively. At the end of the experiment, mice were sacrificed, and tumors extracted, photographed, and weighed. (ii) For xenograft in vivo treatment experiments, 1 × 10^6 PANC1 cells resuspended in RPMI culture medium supplemented with 40% Matrigel (Corning®) were orthotopically injected in the pancreas of female NU-Foxn1nu nude mice (Janvier Labs, France). Approximately 2 months post injection, tumors were excised, cut into identical pieces of ~50 mm^3 and implanted (with RPMI culture medium supplemented with 40% Matrigel® Corning®) subcutaneously into the left and right flanks of 15 8 week-old NU-Foxn1nu nude mice (Janvier, France). […] Control mice were treated with 100 µl of physiological saline (0.9% NaCl). Tumor volumes were determined twice per week by caliper measurements throughout the course of the study as described above. At the indicated end point, mice were sacrificed, weighed, blood was collected in EDTA tubes (Aquisel, Cat no. 107545), urine was collected in 1.5 ml Eppendorf tubes, and tumors were excised, weighed, photographed, and fixed in 4% Paraformaldehyde (Alfa Aesar™).
(§2) Whole blood was analyzed with an Element HT5, Veterinary Hematology Analyzer (Scil animal care company GmbH, Madrid, Spain) and plasma was analyzed at the Analytical Laboratory of the Hospital Fundación Jiménez Díaz. Plasma-EDTA samples were examined for markers of renal (urea, BUN, and creatinine) and liver [bilirubin and GGT (γ-Glutamyltransferase)] injury. Urine was analyzed for protein, creatinine and glucose. Urea, creatinine, and glucose were detected by enzymatic assays, total protein by turbidimetry, and bilirubin and GGT via a colorimetric assay in the Cobas® Roche 701 module (a fully automated, high throughput photometric analyzer for a large array of quantitative and qualitative in vitro tests), following the manufacturer’s instructions.

NU-Foxn1nu nude mice [2] = experiment: Urine analysis of treated xenograft mice; format: in vivo, mouse
Description: as §1, §2

C57Bl6 mice [3] = experiment: Indirect calorimetry analyses (PhenoMaster); format: in vivo, mouse
Description: Indirect calorimetry analyses were carried out using a 16-chamber TSE PhenoMaster monitoring system (TSE Systems GmbH, Bad Homburg, Germany). Full access to food and water was continuously available, and intake was monitored using built-in devices located within each cage. Calorimetry measurements were carried out during a period of 72 h, according to animal weight, to exclude changes in body weight that would contribute to differences in energy expenditure measurements. […] Mice were introduced into individual chambers and were on a 12 h light-dark cycle (lights on at 07:00am) during the course of the experiment, with a maintained room temperature of 22 ± 2°C. Oxygen consumption and CO2 release was measured. From these values, respiratory exchange ratio (RER) was determined as VCO2/VO2 and energy expenditure (EE) was calculated as = ([…] + 1.232 x RER) x VO2. Locomotor activity was reported as the average light beam breaks (XT + YT) per min. XT and YT (T = total) were calculated from the sum of the ambulatory and fine movements. Water and food consumption (DRINK and FOOD, respectively, Fig. S8) were also monitored and recorded.

[4] = test system: PANC1 xenografted tumors in NU-Foxn1nu nude mice; experiment: PANC1 xenograft in vivo treatment; set-up: species or system mouse; conditions: for Fold-change in tumor volume vs d0: individual tumors
Description: as §1

C57Bl6 mice [5] = experiment: In vivo safety: weight and Irwin's test after tail vein injection; set-up: species or system mouse; conditions: 1.4 mg/kg tail vein injection, early acute time points
NU-Foxn1nu nude mice [6] = experiment: Plasma biochemistry (renal and liver injury markers) of treated xenograft mice; format: in vivo, mouse; conditions: for BUN / Urea: blood
Description: as §1, §2

[7] = test system: PANC1 cells in NU-Foxn1nu nude mice; experiment: Xenograft of pre-treated PANC1 cells; format: in vivo, mouse; conditions: for Tumor Growth (mm3): ND: No Detected
Description: as §1

[8] = 17 days of I5 treatment, 1.4 mg/kg r.o. or i.p.
[9] = Intra-Peritoneal group (I5 1.4 mg/kg), single mice
[10] = Intra-Peritoneal group (I5 1.4 mg/kg), single mice, 1.4 mg/kg
[11] = Retro-Orbital group (I5 1.4 mg/kg), single mice, 1.4 mg/kg
[12] = PANC1 xenograft, 1.4 mg/kg r.o.
[13] = Intra-Peritoneal group (I5 1.4 mg/kg), d17, single mice, 1.4 mg/kg
[14] = Retro-Orbital group (I5 1.4 mg/kg), d17, single mice, 1.4 mg/kg

CC(C)[NH][Pt@SP3]([I])([I])[NH]C(C)C [I5, trans-[PtI2(isopropylamine)2]]
adverse effects on hematocrit parameters (NU-Foxn1nu nude mice [1]; [8]): no adverse effects | Basophils (NU-Foxn1nu nude mice [1]; Intra-peritoneal): 0.41 109 cells/L and 0.45 109 cells/L and 0.47 109 cells/L and 0.86 109 cells/L | Eosinophils (NU-Foxn1nu nude mice [1]; Intra-peritoneal): 0.45 109 cells/L and 0.33 109 cells/L and 0.19 109 cells/L and 0.47 109 cells/L | Haemoglobin (NU-Foxn1nu nude mice [1]; Intra-peritoneal): 18.5 g/dL and 17.5 g/dL and 19.1 g/dL and 17.7 g/dL | Hematocrit (NU-Foxn1nu nude mice [1]; Intra-peritoneal): 43.4% and 39.8% and 44.6% | Lymphocytes (NU-Foxn1nu nude mice [1]; Intra-peritoneal): 4.49 109 cells/L and 2.36 109 cells/L and 3.04 109 cells/L and 4.43 109 cells/L | MCH (NU-Foxn1nu nude mice [1]; Intra-peritoneal): 19.3 pg and 19.1 pg and 19.2 pg and 19.7 pg | MCHC (NU-Foxn1nu nude mice [1]; Intra-peritoneal): 42.6 g/dL and 44 g/dL and 42.8 g/dL and 44.4 g/dL | MCV (NU-Foxn1nu nude mice [1]; Intra-peritoneal): 45.3 fL and 43.5 fL and 44.8 fL and 44.2 fL | MPV (NU-Foxn1nu nude mice [1]; Intra-peritoneal): 6.1 fL and 5.5 fL and 6 fL | Monocytes (NU-Foxn1nu nude mice [1]; Intra-peritoneal): 1.17 109 cells/L and 0.96 109 cells/L and 0.45 109 cells/L and 3.1 109 cells/L | Neutrophils (NU-Foxn1nu nude mice [1]; Intra-peritoneal): 4.24 109 cells/L and 2.95 109 cells/L and 1.59 109 cells/L and 5.08 109 cells/L | RDW-CV (NU-Foxn1nu nude mice [1]; Intra-peritoneal): 13.9% and 14.8% and 14.3% | Basophils (NU-Foxn1nu nude mice [1]; Retro-orbital): 0.43 109 cells/L and 0.62 109 cells/L and 0.64 109 cells/L | Eosinophils (NU-Foxn1nu nude mice [1]; Retro-orbital): 0.21 109 cells/L and 0.31 109 cells/L and 0.34 109 cells/L | Haemoglobin (NU-Foxn1nu nude mice [1]; Retro-orbital): 18.3 g/dL | Hematocrit (NU-Foxn1nu nude mice [1]; Retro-orbital): 42.9% and 41.4% and 42.8% | Lymphocytes (NU-Foxn1nu nude mice [1]; Retro-orbital): 2.46 109 cells/L and 3.66 109 cells/L and 5.37 109 cells/L | MCH (NU-Foxn1nu nude mice [1]; Retro-orbital): 19 pg and 20.5 pg and 19.2 pg | MCHC (NU-Foxn1nu nude mice [1]; Retro-orbital): 42.6 g/dL and 44.2 g/dL and 42.9 g/dL | MCV (NU-Foxn1nu nude mice [1]; Retro-orbital): 44.5 fL and 46.3 fL and 44.8 fL | MPV (NU-Foxn1nu nude mice [1]; Retro-orbital): 5.6 fL and 6.1 fL and 5.2 fL | Monocytes (NU-Foxn1nu nude mice [1]; Retro-orbital): 0.91 109 cells/L and 0.87 109 cells/L and 0.47 109 cells/L | Neutrophils (NU-Foxn1nu nude mice [1]; Retro-orbital): 3.45 109 cells/L and 3.24 109 cells/L and 2.71 109 cells/L | RDW-CV (NU-Foxn1nu nude mice [1]; Retro-orbital): 14.2% and 14.7% and 14.6% | adverse effects on urine analyses (NU-Foxn1nu nude mice [2]; [8]): no adverse effects | Creatinine in Urine (NU-Foxn1nu nude mice [2]; [9]): 59 mg/dL | Protein/Creatinine in Urine (NU-Foxn1nu nude mice [2]; [9]): 8814 | Glucose in Urine (NU-Foxn1nu nude mice [2]; [10]): 40 mg/dL and 20 mg/dL | Protein in Urine (NU-Foxn1nu nude mice [2]; [10]): 80 mg/dL and 52 mg/dL | Glucose in Urine (NU-Foxn1nu nude mice [2]; Retro-Orbital group (I5 1.4 mg/kg), single mice): 30 mg/dL | Creatinine in Urine (NU-Foxn1nu nude mice [2]; [11]): 56 mg/dL and 57 mg/dL and 61 mg/dL | Protein/Creatinine in Urine (NU-Foxn1nu nude mice [2]; [11]): 10536 and 9221 and 16383 | RER, EE, locomotor activity, food and water intake vs untreated (C57Bl6 mice [3]; C57Bl6 mice, 1.4 mg/kg i.v.): no differences were observed | DRINK (C57Bl6 mice [3]; Fig. S8B left graph, individual mice): 4.49 mL and 10.13 mL and 7.81 mL and 7.64 mL and 8.16 mL | Fold-change in tumor volume vs d0 ([4]; IP, 0 days post-treatment initiation): 1 | Fold-change in tumor volume vs d0 ([4]; IP, 3 days post-treatment initiation): 1.05 and 1.45 and 0.79 and 1.51 and 1.63 and 0.95 and 1.1 | Fold-change in tumor volume vs d0 ([4]; IP, 7 days post-treatment initiation): 1.29 and 1.56 and 0.79 and 1.32 and 1.71 and 0.86 and 1.49 | Fold-change in tumor volume vs d0 ([4]; IP, 10 days post-treatment initiation): 1.75 and 2.48 and 0.96 and 2.5 and 2.73 and 1.37 and 2.28 | Fold-change in tumor volume vs d0 ([4]; IP, 14 days post-treatment initiation): 2.21 and 4.16 and 0.85 and 2.92 and 3.98 and 1.35 and 3.75 | Fold-change in tumor volume vs d0 ([4]; IP, 17 days post-treatment initiation): 3.08 and 4.39 and 0.91 and 3.92 and 4.58 and 1.62 and 4.25 | tumor growth ([4]; PANC1 xenograft, 1.4 mg/kg i.p.): reduced tumor growth | tumor growth [4, 12]: reduced tumor growth | tumor volume at conclusion of the experiment [4, 12]: statistically significant effect on tumor volume | tumor weight at conclusion of the experiment [4, 12]: marked reduction in tumor weight | Fold-change in tumor volume vs d0 ([4]; RO, 0 days post-treatment initiation): 1 | Fold-change in tumor volume vs d0 ([4]; RO, 3 days post-treatment initiation): 0.66 and 0.95 and 1.12 and 1.34 and 1.68 | Fold-change in tumor volume vs d0 ([4]; RO, 7 days post-treatment initiation): 0.81 and 1.29 and 1.57 and 1.05 and 1.08 | Fold-change in tumor volume vs d0 ([4]; RO, 10 days post-treatment initiation): 0.74 and 2.21 and 2.36 and 1.14 and 1.44 | Fold-change in tumor volume vs d0 ([4]; RO, 14 days post-treatment initiation): 0.85 and 2.64 and 3.43 and 1.26 and 1.18 | Fold-change in tumor volume vs d0 ([4]; RO, 17 days post-treatment initiation): 1.43 and 3.89 and 4.46 and 1.56 and 1.13 | adverse effects on weight and neurological perturbations (Irwin's test) (C57Bl6 mice [5]): no adverse effects | adverse effects on plasma blood analyses (NU-Foxn1nu nude mice [6]; [8]): no adverse effects | GGT (NU-Foxn1nu nude mice [6]; Intra-Peritoneal group (I5 1.4 mg/kg), d17, single mice): < 3 UI/L | Serum Creatinine (NU-Foxn1nu nude mice [6]; [13]): 0.2 mg/dL and 0.17 mg/dL and 0.22 mg/dL | GGT (NU-Foxn1nu nude mice [6]; Retro-Orbital group (I5 1.4 mg/kg), d17, single mice): < 3 UI/L | Serum Creatinine (NU-Foxn1nu nude mice [6]; [14]): 0.17 mg/dL and 0.2 mg/dL and 0.21 mg/dL | Total Bilirubin (NU-Foxn1nu nude mice [6]; [14]): < 0.15 mg/dL and < 0.21 mg/dL | BUN (NU-Foxn1nu nude mice [6]; [13]): 19 mg/dL and 18 mg/dL and 16 mg/dL | Urea (NU-Foxn1nu nude mice [6]; [13]): 40 mg/dL and 39 mg/dL and 38 mg/dL and 35 mg/dL | BUN (NU-Foxn1nu nude mice [6]; [14]): 16 mg/dL and 19 mg/dL | Urea (NU-Foxn1nu nude mice [6]; [14]): 40 mg/dL and 34 mg/dL and 35 mg/dL | Tumor Take (%) ([7]; Day 7): 0% | Tumor Take (%) ([7]; Day 10): 12.5% | Tumor Growth (mm3) ([7]; Day 10, individual tumors): 10.7 mm3 | Tumor Take (%) ([7]; Day 13): 12.5% | Tumor Growth (mm3) ([7]; Day 13, individual tumors): 7.7 mm3 | Tumor Take (%) ([7]; Day 16): 25% | Tumor Growth (mm3) ([7]; Day 16, individual tumors): 9.4 mm3 and 8.5 mm3 | Tumor Take (%) ([7]; Day 20): 25% | Tumor Growth (mm3) ([7]; Day 20, individual tumors): 7.4 mm3 and 10.1 mm3 | Tumor Take (%) ([7]; Day 23): 37.5% | Tumor Growth (mm3) ([7]; Day 23, individual tumors): 8 mm3 and 10.9 mm3 and 9.7 mm3 | Tumor Take (%) ([7]; Day 28): 62.5% | Tumor Growth (mm3) ([7]; Day 28, individual tumors): 9.8 mm3 (2×) and 10.8 mm3 and 10.9 mm3 and 11.6 mm3 and 8.7 mm3 | tumor volumes and weights on day 28 ([7]; PANC1 cells pre-treated 24 h with 20 µM, injected s.c. into nude mice): significantly reduced volumes and weights | tumor take and growth ([7]; PANC1 cells pre-treated 24 h with 20 µM, injected s.c. into nude mice, 28 days): clear delay in tumor take and growth | Tumor Weight ([7]; individual tumors): 0.1301 g and 0.0568 g and 0.1068 g and 0.0882 g and 0.0887 g and 0.1001 g
